Reference: US20050113413A1, “Naphthalene-1,5-disulfonic acid salts of a substituted 4-amino-1-(pyridylmethyl)piperidine compound” (priority 2003, published 2005)

Key:
Assay type in all cases: physicochemical
[1] = Chemical stability of salt forms (change in purity by HPLC upon storage); settings: 40° C. and 75% relative humidity, 7 days; for % Change in Impurity A / % Change in Impurity B / % Change in Purity of Salt: HPLC Method D; for % Change in Purity of Salt: heat sealed polyethylene bags
Protocol: The chemical stability of each salt form was evaluated by determining the change in purity of the sample upon storage of the salt form at 40° C.
Prior to storage, each salt form was analyzed by HPLC (Method D) to determine sample purity and in particular, to determine the amount of the following impurities present in the sample: • A. 3-[4-{N-[7-(3-(S)-1-Carbamoyl-1,1-diphenylmethyl)pyrrolidin-1-yl)hept-1-yl]-N-(isopropyl)amino}piperidin-1-ylmethyl]-4-methoxy-1-methylpyridinium Salt (Impurity A); • B. 4-{N-[7-(3-(S)-1-Carbamoyl-1,1-diphenylmethyl)pyrrolidin-1-yl)hept-1-yl]-N-(isopropyl)amino}-1-(4-oxo-1,4-dihydropyrid-3-ylmethyl)piperidine (Impurity B).
Approximately 50-100 mg of the salt form was then placed in two heat sealed low density polyethylene bags. The bags were then placed into a stability chamber that was previously set at 40° C. and 75% relative humidity. After 7 days, the bags were removed and the contents were analyzed by HPLC.

[2] = Physical stability of salt forms (appearance upon storage in open vial); settings: 30° C. and 60% relative humidity, listed as naphthalene-1,5-disulfonic acid salt
Protocol: The physical stability of certain salt forms was evaluated by determining any changes in appearance of the sample upon storage of the salt form at 30° C. and 60% relative humidity.
To an open vial was added 50-100 mg of each salt form. The open vials were placed in a stability chamber that was previously set at 30° C. and 60% relative humidity. At periodic intervals, the appearance of each salt form was compared to its starting appearance and any differences were recorded.

[3] = Physical stability of encapsulated pharmaceutical formulations (appearance upon storage); settings: both 25° C. and 60% relative humidity, and ambient temperature and relative humidity
Protocol: The physical stability of encapsulated pharmaceutical formulations containing certain salt forms was evaluated by determining any changes in appearance of the pharmaceutical formulation upon storage.
Capsules containing a 1:1 mixture (wt/wt) of the salt form and microcrystalline cellulose (Avecil) were stored under of the following conditions: • (1) Capsules were placed inside an open container within a stability chamber that was previously set to 25° C. and 60% relative humidity; or • (2) Capsules were placed inside an open container on the bench top alongside a thermometer and hygrometer.
At periodic intervals, the appearance of each formulation was compared to its starting appearance and any differences were recorded.

COc1ccncc1CN1CCC(N(CCCCCCCN2CC[C@@H](C(C(N)=O)(c3ccccc3)c3ccccc3)C2)C(C)C)CC1.O=S(=O)(O)c1cccc2c(S(=O)(=O)O)cccc12 [Example 7]
Chemical stability (summary in words of Table I) [1]: excellent chemical stability
% Change in Impurity A [1]: <0.1%
% Change in Impurity B [1]: <0.1%
% Change in Purity of Salt [1]: 0.4%
Appearance Day 15 [2]: remained a free flowing powder
Appearance of pharmaceutical formulation upon storage (summary in words of Table III) [3]: remained a free flowing powder

COc1ccncc1CN1CCC(N(CCCCCCCN2CC[C@@H](C(C(N)=O)(c3ccccc3)c3ccccc3)C2)C(C)C)CC1.CS(=O)(=O)O.CS(=O)(=O)O [Example 9]
% Change in Impurity A [1]: <0.1%
% Change in Impurity B [1]: <0.1%
% Change in Purity of Salt [1]: 0.9%

COc1ccncc1CN1CCC(N(CCCCCCCN2CC[C@@H](C(C(N)=O)(c3ccccc3)c3ccccc3)C2)C(C)C)CC1.CS(=O)(=O)O.CS(=O)(=O)O.CS(=O)(=O)O [Example 10]
% Change in Impurity A [1]: 9.41%
% Change in Impurity B [1]: 6.59%
% Change in Purity of Salt [1]: 16.4%

COc1ccncc1CN1CCC(N(CCCCCCCN2CC[C@@H](C(C(N)=O)(c3ccccc3)c3ccccc3)C2)C(C)C)CC1.O=S(=O)(O)O [Example 11A]
% Change in Impurity A [1]: <0.1%
% Change in Impurity B [1]: 0.11%
% Change in Purity of Salt [1]: 0.8%

COc1ccncc1CN1CCC(N(CCCCCCCN2CC[C@@H](C(C(N)=O)(c3ccccc3)c3ccccc3)C2)C(C)C)CC1.O=C(O)C(O)C(O)C(=O)O [Example 11B]
% Change in Impurity A [1]: 0.26%
% Change in Impurity B [1]: 0.35%
% Change in Purity of Salt [1]: 0.8%
Appearance of pharmaceutical formulation upon storage (summary in words of Table III) [3]: formed a non-flowing granular cake

COc1ccncc1CN1CCC(N(CCCCCCCN2CC[C@@H](C(C(N)=O)(c3ccccc3)c3ccccc3)C2)C(C)C)CC1.O=C(O)c1cc(=O)[nH]c(=O)[nH]1.O=C(O)c1cc(=O)[nH]c(=O)[nH]1 [Example 11C]
% Change in Impurity A [1]: 0.45%
% Change in Impurity B [1]: 0.49%
% Change in Purity of Salt [1]: 1.1%

COc1ccncc1CN1CCC(N(CCCCCCCN2CC[C@@H](C(C(N)=O)(c3ccccc3)c3ccccc3)C2)C(C)C)CC1.O=C(O)c1ccccc1O.O=C(O)c1ccccc1O [Example 11D]
% Change in Impurity A [1]: 0.17%
% Change in Impurity B [1]: 0.19%
% Change in Purity of Salt [1]: 0.7%

COc1ccncc1CN1CCC(N(CCCCCCCN2CC[C@@H](C(C(N)=O)(c3ccccc3)c3ccccc3)C2)C(C)C)CC1.O=C(O)c1ccccc1O.O=C(O)c1ccccc1O.O=C(O)c1ccccc1O [Example 11E]
% Change in Impurity A [1]: 1.22%
% Change in Impurity B [1]: 1.06%
% Change in Purity of Salt [1]: 2.7%

COc1ccncc1CN1CCC(N(CCCCCCCN2CC[C@@H](C(C(N)=O)(c3ccccc3)c3ccccc3)C2)C(C)C)CC1.O=C(O)c1cc(O)ccc1O.O=C(O)c1cc(O)ccc1O [Example 11F]
% Change in Impurity A [1]: 0.21%
% Change in Impurity B [1]: 0.23%
% Change in Purity of Salt [1]: 0.4%

COc1ccncc1CN1CCC(N(CCCCCCCN2CC[C@@H](C(C(N)=O)(c3ccccc3)c3ccccc3)C2)C(C)C)CC1.Cl.Cl [Example 11G]
% Change in Impurity A [1]: 1.16%
% Change in Impurity B [1]: 0.79%
% Change in Purity of Salt [1]: 3.6%
